Results from patent US12492188B2, “1H-benzo[D]imidazole derivatives as TLR9 inhibitors for the treatment of fibrosis” (BRISTOL-MYERS SQUIBB COMPANY, priority 2020, dated 2025).
Like-named read-outs stand apart in the source and are kept apart here.

Biological target: T1, human TLR9 (Homo sapiens, UniProt Q9NR96)
T1 construct: host or cells: HEK-Blue cells (HEK293-derived reporter line)
T1 sequence (Q9NR96 26-1032): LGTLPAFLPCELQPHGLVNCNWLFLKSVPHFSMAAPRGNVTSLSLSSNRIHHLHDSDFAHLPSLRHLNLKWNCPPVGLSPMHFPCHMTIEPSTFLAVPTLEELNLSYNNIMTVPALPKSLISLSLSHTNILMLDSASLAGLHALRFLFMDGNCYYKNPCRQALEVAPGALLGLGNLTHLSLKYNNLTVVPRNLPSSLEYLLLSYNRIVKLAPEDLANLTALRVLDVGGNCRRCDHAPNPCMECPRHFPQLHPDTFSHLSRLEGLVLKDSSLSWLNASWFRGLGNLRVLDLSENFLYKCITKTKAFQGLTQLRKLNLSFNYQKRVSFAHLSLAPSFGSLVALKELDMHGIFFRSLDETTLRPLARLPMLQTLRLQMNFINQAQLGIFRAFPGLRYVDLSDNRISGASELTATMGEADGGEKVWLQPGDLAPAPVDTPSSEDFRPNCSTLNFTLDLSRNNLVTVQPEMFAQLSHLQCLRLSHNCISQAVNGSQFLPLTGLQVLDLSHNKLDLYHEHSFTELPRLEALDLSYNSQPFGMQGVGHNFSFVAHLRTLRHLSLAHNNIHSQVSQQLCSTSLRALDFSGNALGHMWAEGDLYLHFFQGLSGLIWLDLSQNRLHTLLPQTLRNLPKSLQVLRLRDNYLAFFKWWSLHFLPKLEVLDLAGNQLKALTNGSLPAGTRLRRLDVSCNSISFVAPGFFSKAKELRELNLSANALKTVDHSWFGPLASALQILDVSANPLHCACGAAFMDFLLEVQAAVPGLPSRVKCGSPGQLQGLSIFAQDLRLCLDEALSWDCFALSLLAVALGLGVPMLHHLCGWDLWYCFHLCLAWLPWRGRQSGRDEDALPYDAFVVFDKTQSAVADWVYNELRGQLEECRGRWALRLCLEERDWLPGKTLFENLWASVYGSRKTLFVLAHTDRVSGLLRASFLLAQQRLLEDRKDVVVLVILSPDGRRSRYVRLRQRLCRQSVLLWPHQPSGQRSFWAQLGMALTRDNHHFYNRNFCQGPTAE
Assay: TLR9 inhibition reporter assay (HEK-Blue cells, secreted embryonic alkaline phosphatase reporter)
Format: cell-based
Procedure: TLR7/8/9 Inhibition Reporter Assays
HEK-Blue™-cells (Invivogen) overexpressing human TLR7, TLR8 or TLR9 receptors were used for screening inhibitors of these receptors using an inducible SLAP (secreted embryonic alkaline phosphatase) reporter gene under the control of the […] minimal promoter fused to five NF-κB and AP-1-binding sites. Briefly, cells are seeded into Greiner 384 well plates (15000 cells per well for TLR7, 20,000 for TLR8 and 25,000 for TLR9) and then treated with test compounds in DMSO to yield a final dose response concentration range of 0.05 nM-50 μM. After a 30 minute compound pre-treatment at room temperature, the cells are then stimulated with a TLR7 ligand (gardiquimod at a final concentration of 7.5 μM), TLR8 ligand (R848 at a final concentration of 15.9 μM) or TLR9 ligand (ODN2006 at a final concentration of 5 nM) to activate NF-κB and AP-1 which induce the production of SLAP. After a 22 hour incubation at 37° C., […], SLAP levels are determined with the addition of HEK-Blue™ Detection reagent (Invivogen), a cell culture medium that allows for detection of SLAP, according to manufacturer's specifications. The percent inhibition is determined as the […] in the HEK-Blue signal present in wells treated with agonist plus DMSO alone compared to wells treated with a known inhibitor.

[1] = HEK-Blue cells overexpressing human TLR9, stimulated with ODN2006 5 nM, 22 hour incubation, reporter readout
[2] = HEK-Blue cells overexpressing human TLR9, stimulated with ODN2006 5 nM, read-out: TLR 9 IC50

IC50 [1] [nM]	IC50 [2] [nM]	IC50 [nM]	IC50 (HEK-Blue human TLR9 reporter cells) [nM]	Structure (SMILES)
	172	170		COc1ccc(-c2nc3c(C)cc(C4CCN(C5CC6CCC(C5)N6CC5CCC5)CC4)cc3n2C)cc1OC (single isomer, unassigned) [Example 151, 6-(1-(8-(cyclobutylmethyl)-8-azabicyclo[3.2.1]octan-3-yl)piperidin-4-yl)-2-(3,4-dimethoxyphenyl)-1,4-dimethyl-1H-benzo[d]imidazole]
	339	340		Cc1cc(C2CCN(C3CC4CCC(C3)N4CC3CCC3)CC2)cc2c1nc(-c1ccc(S(C)(=O)=O)cc1)n2C (single isomer, unassigned) [Example 157, 6-(1-(8-(cyclobutylmethyl)-8-azabicyclo[3.2.1]octan-3-yl)piperidin-4-yl)-1,4-dimethyl-2-(4-(methylsulfonyl)phenyl)-1H-benzo[d]imidazole]
49	49			COc1cc(-c2nc3c(C)cc(C4CCN(C5CCN(CC(C)C)CC5)CC4)cc3[nH]2)cn2ncnc12 [Example 61, 6-(6-(1′-isobutyl-[1,4′-bipiperidin]-4-yl)-4-methyl-1H-benzo[d]imidazol-2-yl)-8-methoxy-[1,2,4]triazolo[1,5-a]pyridine tris(2,2,2-trifluoroacetate)]
91	91			COc1ccc(-c2nc3c(C)cc(C4CCN(C5CCN(CC(C)C)CC5)CC4)cc3[nH]2)cc1Cl [Example 64, 2-(3-chloro-4-methoxyphenyl)-6-(1′-isobutyl-[1,4′-bipiperidin]-4-yl)-4-methyl-1H-benzo[d]imidazole]
300	297			Cc1cc(C2CCN(C3CCN(CC(C)C)CC3)CC2)cc2[nH]c(-c3ccc4c(c3)OC(F)(F)O4)nc12 [Example 65, 2-(2,2-difluorobenzo[d][1,3]dioxol-5-yl)-6-(1′-isobutyl-[1,4′-bipiperidin]-4-yl)-4-methyl-1H-benzo[d]imidazole tris(2,2,2-trifluoroacetate)]
44	44			Cc1cc(C2CCN(C3CCN(CC(C)C)CC3)CC2)cc2[nH]c(-c3ccc(S(C)(=O)=O)c(Br)c3)nc12 [Example 67, 2-(3-bromo-4-(methylsulfonyl)phenyl)-6-(1′-isobutyl-[1,4′-bipiperidin]-4-yl)-4-methyl-1H-benzo[d]imidazole]
85	85			Cc1cc(C2CCN(C3CCN(CC(C)C)CC3)CC2)cc2[nH]c(-c3ccc(C4CC4)cc3)nc12 [Example 68, 2-(4-cyclopropylphenyl)-6-(1′-isobutyl-[1,4′-bipiperidin]-4-yl)-4-methyl-1H-benzo[d]imidazole]
240	241			Cc1cc(C2CCN(C3CCN(CC(C)C)CC3)CC2)cc2[nH]c(-c3ccc(OC(F)F)c(F)c3)nc12 [Example 69, 2-(4-(difluoromethoxy)-3-fluorophenyl)-6-(1′-isobutyl-[1,4′-bipiperidin]-4-yl)-4-methyl-1H-benzo[d]imidazole tris(2,2,2-trifluoroacetate)]
210	208			Cc1cc(C2CCN(C3CCN(CC(C)C)CC3)CC2)cc2[nH]c(-c3nc4ccccc4s3)nc12 [Example 70, 2-(6-(1′-isobutyl-[1,4′-bipiperidin]-4-yl)-4-methyl-1H-benzo[d]imidazol-2-yl)benzo[d]thiazole tris(2,2,2-trifluoroacetate)]
63	63			Cc1cc(C2CCN(C3CCN(CC(C)C)CC3)CC2)cc2[nH]c(-c3ccc(S(=O)(=O)c4ccccc4)cc3)nc12 [Example 75, 6-(1′-isobutyl-[1,4′-bipiperidin]-4-yl)-4-methyl-2-(4-(phenylsulfonyl)phenyl)-1H-benzo[d]imidazole tris(2,2,2-trifluoroacetate)]

Further lines, the compound ahead of its results:

Structure (SMILES)	IC50 [1] [nM]	IC50 [2] [nM]	IC50 [nM]	IC50 (HEK-Blue human TLR9 reporter cells) [nM]
Cc1cc(C2CCN(C3CC4CCC(C3)N4C3CCC3)CC2)cc2c1nc(-c1ccc(S(C)(=O)=O)c(F)c1)n2C (single isomer, unassigned) [Example 123, 6-(1-(8-cyclobutyl-8-azabicyclo[3.2.1]octan-3-yl)piperidin-4-yl)-2-(3-fluoro-4-(methylsulfonyl)phenyl)-1,4-dimethyl-1H-benzo[d]imidazole]	890	889		
COc1ccc(-c2nc3c(C)cc(C4CCN(C5CC6CCC(C5)N6CC5CCC5)CC4)cc3n2C)cc1OC (single isomer, unassigned) [Example 150, 6-(1-(8-(cyclobutylmethyl)-8-azabicyclo[3.2.1]octan-3-yl)piperidin-4-yl)-2-(3,4-dimethoxyphenyl)-1,4-dimethyl-1H-benzo[d]imidazole]		32	32	
Cc1cc(C2CCN(C3CC4CCC(C3)N4CC3CC3)CC2)cc2c1nc(-c1ccc(S(C)(=O)=O)cc1)n2C (single isomer, unassigned) [Example 155, 6-(1-(8-(cyclopropylmethyl)-8-azabicyclo[3.2.1]octan-3-yl)piperidin-4-yl)-1,4-dimethyl-2-(4-(methylsulfonyl)phenyl)-1H-benzo[d]imidazole]		163	160	
COc1cc(-c2nc3c(C)cc(C4CCN(C5CC6CCC(C5)N6C5CCC5)CC4)cc3n2C)cn2ncnc12 (single isomer, unassigned) [Example 356, 6-(6-(1-(8-cyclobutyl-8-azabicyclo[3.2.1]octan-3-yl)piperidin-4-yl)-1,4-dimethyl-1H-benzo[d]imidazol-2-yl)-8-methoxy-[1,2,4]triazolo[1,5-a]pyridine]		41		41
Cc1cc(C2CCN(C3CCN(CC(C)C)CC3)CC2)cc2[nH]c(-c3ccc(OC(F)(F)F)cc3)nc12 [Example 63, 6-(1′-isobutyl-[1,4′-bipiperidin]-4-yl)-4-methyl-2-(4-(trifluoromethoxy)phenyl)-1H-benzo[d]imidazole]	200	196		
Cc1cc(C2CCN(C3CCN(CC(C)C)CC3)CC2)cc2[nH]c(-c3ccc(S(C)(=O)=O)c(F)c3)nc12 [Example 66, 2-(3-fluoro-4-(methylsulfonyl)phenyl)-6-(1′-isobutyl-[1,4′-bipiperidin]-4-yl)-4-methyl-1H-benzo[d]imidazole]	69	69		
Cc1noc(C)c1-c1nc2c(C)cc(C3CCN(C4CCN(CC(C)C)CC4)CC3)cc2[nH]1 [Example 71, 4-(6-(1′-isobutyl-[1,4′-bipiperidin]-4-yl)-4-methyl-1H-benzo[d]imidazol-2-yl)-3,5-dimethylisoxazole]	1800	1770		
Cc1cc(C2CCN(C3CCN(CC(C)C)CC3)CC2)cc2[nH]c(-c3cccc4ncccc34)nc12 [Example 72, 5-(6-(1′-isobutyl-[1,4′-bipiperidin]-4-yl)-4-methyl-1H-benzo[d]imidazol-2-yl)quinoline tris(2,2,2-trifluoroacetate)]	88	88		
Cc1cc(C2CCN(C3CCN(CC(C)C)CC3)CC2)cc2[nH]c(-c3ccc(OC(F)(F)F)c(Cl)c3)nc12 [Example 73, 2-(3-chloro-4-(trifluoromethoxy)phenyl)-6-(1′-isobutyl-[1,4′-bipiperidin]-4-yl)-4-methyl-1H-benzo[d]imidazole tris(2,2,2-trifluoroacetate)]	270	270		
Cc1cc(C2CCN(C3CCN(CC(C)C)CC3)CC2)cc2[nH]c(-c3ccc4cnccc4c3)nc12 [Example 74, 6-(6-(1′-isobutyl-[1,4′-bipiperidin]-4-yl)-4-methyl-1H-benzo[d]imidazol-2-yl)isoquinoline]	37	37		
